In ChEMBL document CHEMBL1201862, “PubChem BioAssay data set” (2004):
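Results reflect a 48-hour exposure of cells in 96-well plates to compound at five concentrations. At the GI50, growth is halved.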 The source made the active and inactive calls. Cut-off read from the data, not from the text of the source: active = GI50 up to about 1.1 µM and inactive = higher.

How the values were obtained:
Assay in all cases: inhibition of tumour cell growth, NCI panel, 48 h
[1] = test system: UACC-62
[2] = test system: OVCAR-5
[3] = test system: KM12
[4] = test system: HT-29
[5] = test system: KM-20L2
[6] = test system: HCT-116
[7] = test system: SN12C
[8] = test system: RXF 631
[9] = test system: SK-MEL-2
[10] = test system: SNB-19
[11] = test system: DLD-1
[12] = test system: MOLT-4
[13] = test system: COLO 205
[14] = test system: SK-MEL-28
[15] = test system: SW-620
[16] = test system: IGROV-1
[17] = test system: SF-295
[18] = test system: SF-268
[19] = test system: 786-0
[20] = test system: A498
[21] = test system: RPMI-8226
[22] = test system: SR
[23] = test system: OVCAR-8
[24] = test system: M19-MEL
[25] = test system: SK-MEL-5
[26] = test system: NCI-H460
[27] = test system: HL-60
[28] = test system: OVCAR-3
[29] = test system: RXF 393
[30] = test system: M14
[31] = test system: Malme-3M
[32] = test system: A549
[33] = test system: EKVX
[34] = test system: DMS-114
[35] = test system: CCRF-CEM
[36] = test system: SF-539
[37] = test system: SK-OV-3
[38] = test system: CAKI-1
[39] = test system: ACHN
[40] = test system: TK-10
[41] = test system: NCI-H23
[42] = test system: OVCAR-4
[43] = test system: UO-31
[44] = test system: NCI-H522
[45] = test system: HCC 2998
[46] = test system: K562
[47] = test system: UACC-257
[48] = test system: HOP-62
[49] = test system: LOX IMVI
[50] = test system: NCI-H226
[51] = test system: XF498
[52] = test system: DMS-273
[53] = test system: HCT-15
[54] = test system: SNB-78
[55] = test system: HOP-92
[56] = test system: LXFL 529
[57] = test system: U-251

Measured: GI50

C[N+](C)(C)CC(=O)N/N=C(/Cc1cc(=O)oc2cc(O)ccc12)C(=O)Nc1ccc(Cl)cc1
inactive: [1] > 100 µM | [2] > 100 µM | [3] > 100 µM | [4] > 100 µM | [5] > 100 µM | [6] > 100 µM | [7] > 100 µM | [8] > 100 µM | [9] > 100 µM | [10] > 100 µM | [11] > 100 µM | [12] > 100 µM | [13] > 100 µM | [14] > 100 µM | [15] > 100 µM | [16] > 100 µM | [17] > 100 µM | [18] > 100 µM | [19] > 100 µM | [20] > 100 µM | [21] > 100 µM | [22] > 100 µM | [23] > 100 µM | [24] > 100 µM | [25] > 100 µM | [26] > 100 µM | [27] > 100 µM | [28] > 100 µM | [29] > 100 µM | [30] > 100 µM | [31] > 100 µM | [32] > 100 µM | [33] > 100 µM | [34] > 100 µM | [35] > 100 µM | [36] > 100 µM | [37] > 100 µM | [38] > 100 µM | [39] > 100 µM | [40] > 100 µM | [41] > 100 µM | [42] > 100 µM | [43] > 100 µM | [44] > 100 µM | [45] > 100 µM | [46] > 100 µM | [47] > 100 µM | [48] > 100 µM

CCOC(=O)c1cc(/C=C/C(C)=C/C(=O)OC)n(C)c1C
inactive: [1] 50.6 µM | [2] > 100 µM | [3] 59.2 µM | [49] > 100 µM | [4] 40 µM | [5] 74 µM | [7] > 100 µM | [50] > 100 µM | [8] > 100 µM | [10] > 100 µM | [11] 67.8 µM | [12] 41.7 µM | [13] > 100 µM | [51] 93.1 µM | [15] > 100 µM | [16] > 100 µM | [17] > 100 µM | [18] 52.4 µM | [19] > 100 µM | [20] > 100 µM | [21] 36.2 µM | [52] > 100 µM | [23] > 100 µM | [24] > 100 µM | [25] 52.1 µM | [26] > 100 µM | [27] 23.9 µM | [28] 58.3 µM | [30] > 100 µM | [31] > 100 µM | [32] > 100 µM | [54] > 100 µM | [33] > 100 µM | [35] 61.5 µM | [36] 77.8 µM | [37] > 100 µM | [38] > 100 µM | [55] > 100 µM | [39] 45.2 µM | [40] > 100 µM | [41] > 100 µM | [56] 91.6 µM | [42] 60.7 µM | [43] > 100 µM | [44] 76 µM | [45] 92.5 µM | [46] 25.8 µM | [47] 78.2 µM | [57] > 100 µM | [48] > 100 µM
63.8 µM: [53]
